# Counter-ions that a name gives are not always drawn. Like-named read-outs stand apart in the source and are kept apart here.
# How the values were obtained:
# [1] = target: T1, cloned 5-HT1A receptors stably expressed in transfected HeLa cells (HA7) (Homo sapiens, UniProt P08908); experiment: 5-HT1A antagonistic activity: antagonism of 5-HT induced inhibition of forskolin induced cAMP accumulation; format: cell-based; conditions: HeLa cells (HA7) expressing cloned 5-HT1A receptors
# T1 construct: expressed in transfected cells; host or cells: HeLa cells (HA7)
# T1 sequence (P08908 1-422): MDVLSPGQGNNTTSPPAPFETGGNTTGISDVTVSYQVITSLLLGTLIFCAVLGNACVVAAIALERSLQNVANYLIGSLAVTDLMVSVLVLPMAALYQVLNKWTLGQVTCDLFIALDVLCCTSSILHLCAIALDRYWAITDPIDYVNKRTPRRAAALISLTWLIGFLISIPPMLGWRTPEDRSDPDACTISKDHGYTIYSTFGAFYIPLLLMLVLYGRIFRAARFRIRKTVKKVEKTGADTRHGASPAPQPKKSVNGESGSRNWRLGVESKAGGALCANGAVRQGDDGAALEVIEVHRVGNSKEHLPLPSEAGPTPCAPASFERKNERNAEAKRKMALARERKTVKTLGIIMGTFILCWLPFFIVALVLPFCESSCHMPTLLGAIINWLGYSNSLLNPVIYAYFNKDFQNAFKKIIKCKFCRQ
# Protocol: The assay was performed as a modification of the method described by Pauwels, P. J. et al, Biochem. Pharmacol. 1993, 45, 375.
# [2] = target: T2, 3H-5-HT uptake into whole rat brain synaptosomes (serotonin reuptake) (Rattus norvegicus, UniProt P31652); experiment: Inhibition of 3H-5-HT uptake into rat brain synaptosomes; format: biochemical
# T2 construct: from tissue; host or cells: whole rat brain synaptosomes
# Protocol: Inhibition of ^3H-5-HT Uptake Into Rat Brain Synaptosomes.
# Using this method, the ability of drugs to inhibit the accumulation of ^3H-5-HT into whole rat brain synaptosomes is determined in vitro.
# human 5-HT1A receptors = target: T3, human 5-HT1A receptors (Homo sapiens, UniProt P08908); experiment: Inhibition of 3H-5-CT binding to human 5-HT1A receptors
# T3 construct: expressed in transfected cells; host or cells: HeLa cells (HA7)
# T3 sequence (P08908 1-422): T1 sequence (P08908 1-422)
# Protocol: Inhibition of ^3H-5-CT Binding to Human 5-HT1A Receptors.
# Human 5-HT1A receptors (40 μg of cell homogenate) were incubated for 15 minutes at 37° C. in 50 mM Tris buffer at pH 7.7 in the presence of ^3H-5-CT. Non-specific binding was determined by including 10 μM of metergoline. The reaction was terminated by rapid filtration through Unifilter GF/B filters on a Tomtec Cell Harvester. Filters were counted in a Packard Top Counter.
# [3] = 3H-5-HT accumulation into whole rat brain synaptosomes, in vitro, read-out: Inhibition of serotonin reuptake IC50
# [4] = cloned human 5-HT1A receptors in HeLa cells (HA7) homogenate, 15 minutes at 37° C., pH 7.7
# T2 sequence (P31652 whole entry): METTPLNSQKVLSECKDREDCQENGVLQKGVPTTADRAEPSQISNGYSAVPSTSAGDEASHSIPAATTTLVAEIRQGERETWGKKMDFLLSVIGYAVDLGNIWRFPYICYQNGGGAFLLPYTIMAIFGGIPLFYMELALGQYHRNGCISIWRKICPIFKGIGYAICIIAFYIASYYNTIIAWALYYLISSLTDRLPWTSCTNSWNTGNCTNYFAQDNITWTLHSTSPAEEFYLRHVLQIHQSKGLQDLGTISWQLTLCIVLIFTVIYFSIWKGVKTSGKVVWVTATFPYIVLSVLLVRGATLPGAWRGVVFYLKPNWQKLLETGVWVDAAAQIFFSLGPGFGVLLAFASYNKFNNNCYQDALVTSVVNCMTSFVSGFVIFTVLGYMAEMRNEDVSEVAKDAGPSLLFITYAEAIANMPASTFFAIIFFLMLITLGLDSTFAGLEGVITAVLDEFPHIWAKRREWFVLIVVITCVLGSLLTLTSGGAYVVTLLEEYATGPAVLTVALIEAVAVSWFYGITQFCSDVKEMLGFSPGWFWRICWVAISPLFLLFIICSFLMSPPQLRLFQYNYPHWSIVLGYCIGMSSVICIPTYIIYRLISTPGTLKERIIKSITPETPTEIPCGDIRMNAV
Compound,IC50 [1] [nM],"IC50 [2, 3] [nM]",IC50 (human 5-HT1A receptors; [4]) [nM],melting point [°C],also measured
"Fc1ccc2c(CCCN3CCN(c4cccc5c4OCCO5)CC3)noc2c1 [Compound 3b, 1-[1,4-Benzodioxan-5-yl]-4-[3-(6-fluorobenzo[1,2]isoxazol-3-yl)-1-propyl]piperazine]",74,240,7.5,,
"Fc1ccc2occ(CCN3CCN(c4cccc5ccoc45)CC3)c2c1 [Compound 3a, 1-[Benzofuran-7-yl]-4-[2-(5-fluorobenzofuran-3-yl)ethyl]piperazine]",,170,29,,
"Clc1ccc2c(CCN3CCN(c4cccc5c4OCCO5)CC3)n[nH]c2c1 (as salt: oxalate) [Compound 2b, 1-[1,4-Benzodioxan-5-yl]-4-[2-(6-chloroindazol-3-yl)ethyl]piperazine]",,,,111 to 113,
"Clc1ccc2occ(CCN3CC=C(c4cccc5c4OCC5)CC3)c2c1 [Compound 3g, 1-[2-(5-chlorobenzofuran-3-yl)ethyl]-4-[2,3-dihydrobenzofuran-7-yl]-1,2,3,6-tetrahydropyridine]",,160,,,IC50 (human 5-HT1A receptors): 24 nM
"Cc1cccc2occ(CCCN3CCN(c4cccc5c4OCCO5)CC3)c12 [Compound 5a, 1-[1,4-Benzodioxan-5-yl]-4-[3-(4-methylbenzofuran-3-yl)-1-propyl]piperazine]",390,15,2.9,,
"Fc1ccc2occ(CCN3CC=C(c4cccc5ccoc45)CC3)c2c1 [Compound 3h, 4-[Benzofuran-7-yl]-1-[2-(5-fluorobenzofuran-3-yl)ethyl]-1,2,3,6-tetrahydropyridine]",,,,,IC50 [2]: 43 nM; IC50 (human 5-HT1A receptors): 11 nM
"Clc1ccc2occ(CCN3CCN(c4cccc5c4OCCO5)CC3)c2c1 (as salt: oxalate) [Compound 3d, 1-[1,4-Benzodioxan-5-yl]-4-[2-(5-chlorobenzofuran-3-yl)ethyl]piperazine]",,,,206 to 208,
"C1=CC(CCCCN2CCN(c3cccc4c3OCCO4)CC2)c2ccccc21 (stereo not drawn) [Compound 1a, 1-[1,4-Benzodioxan-5-yl]-4-[1-(inden-1-yl)-4-butyl]piperazine]",170,61,1.7,,
"Clc1ccc2occ(CCN3CC=C(c4cccc5c4OCC5)CC3)c2c1 (as salt: oxalate) [Compound 3g, 1-[2-(5-chlorobenzofuran-3-yl)ethyl]-4-[2,3-dihydrobenzofuran-7-yl]-1,2,3,6-tetrahydropyridine]",,,,187 to 202,
"c1cc2c(c(N3CCN(CCc4coc5ccccc45)CC3)c1)OCCO2 (as salt: oxalate) [Compound 3f, 1-[1,4-Benzodioxan-5-yl]-4-[2-(benzofuran-3-yl)ethyl]piperazine]",,,,206 to 208,
"Fc1ccc2occ(CCN3CC=C(c4cccc5ccoc45)CC3)c2c1 (as salt: oxalate) [Compound 3h, 4-[Benzofuran-7-yl]-1-[2-(5-fluorobenzofuran-3-yl)ethyl]-1,2,3,6-tetrahydropyridine]",,,,201 to 211,
"c1cc2c(c(N3CCN(CCc4coc5ccccc45)CC3)c1)OCCO2 [Compound 3f, 1-[1,4-Benzodioxan-5-yl]-4-[2-(benzofuran-3-yl)ethyl]piperazine]",290,,,,IC50 [2]: 12 nM; IC50 (human 5-HT1A receptors): 8.3 nM
"C(=CC1CCc2ccccc21)CCN1CCN(c2cccc3c2OCCO3)CC1 (stereo not drawn) [Compound 1b, 1-[1,4-Benzodioxan-5-yl]-4-[1-(indan-1-yl)-1-buten-4-yl]piperazine]",,,6.1,,
"Clc1cccc2c(CCN3CCN(c4cccc5c4OCCO5)CC3)coc12 (as salt: oxalate) [Compound 3i, 1-[1,4-Benzodioxan-5-yl]-4-[2-(7-chlorobenzofuran-3-yl)ethyl]piperazine]",,,,190 to 192,

# Second part, led by results:
IC50 [1] [nM],"IC50 [2, 3] [nM]",IC50 (human 5-HT1A receptors; [4]) [nM],melting point [°C],Compound,also measured
,,,204 to 206,"Cc1cccc2occ(CCN3CCN(c4cccc5c4OCCO5)CC3)c12 (as salt: oxalate) [Compound 3c, 1-[1,4-Benzodioxan-5-yl]-4-[2-(4-methylbenzofuran-3-yl)ethyl]piperazine]",
100,0.69,14,,"Fc1ccc2occ(CCN3CCN(c4cccc5c4OCCO5)CC3)c2c1 [Compound 2a, 1-[1,4-Benzodioxan-5-yl]-4-[2-(5-fluorobenzofuran-3-yl)ethyl]piperazine]",
260,32,,,"Cc1ccc(Cl)c2occ(CCCN3CCN(c4cccc5c4OCCO5)CC3)c12 [Compound 4a, 1-[1,4-Benzodioxan-5-yl]-4-[3-(7-chloro-4-methylbenzofuran-3-yl)-1-propyl]piperazine]",
,,,154 to 155,"c1ccc2c(c1)CCC2CCCCN1CCN(c2cccc3c2OCCO3)CC1 (stereo not drawn) (as salt: oxalate) [Compound 1c, 1-[1,4-Benzodioxan-5-yl]-4-[1-(indan-1-yl)-4-butyl]piperazine]",
1500,1.5,2.1,,"Clc1cccc2c(CCN3CCN(c4cccc5c4OCCO5)CC3)coc12 [Compound 3i, 1-[1,4-Benzodioxan-5-yl]-4-[2-(7-chlorobenzofuran-3-yl)ethyl]piperazine]",
,130,2.5,,"c1ccc2c(c1)CCC2CCCCN1CCN(c2cccc3c2OCCO3)CC1 (stereo not drawn) [Compound 1c, 1-[1,4-Benzodioxan-5-yl]-4-[1-(indan-1-yl)-4-butyl]piperazine]",
2300,11,19,,"Cc1cccc2occ(CCN3CCN(c4cccc5c4OCCO5)CC3)c12 [Compound 3c, 1-[1,4-Benzodioxan-5-yl]-4-[2-(4-methylbenzofuran-3-yl)ethyl]piperazine]",
1400,58,8.8,,"Cc1ccc2c(CCN3CCN(c4cccc5c4OCCO5)CC3)coc2c1 [Compound 3e, 1-[1,4-Benzodioxan-5-yl]-4-[2-(6-methylbenzofuran-3-yl)ethyl]piperazine]",
,160,9.3,,"Clc1ccc2c(CCN3CCN(c4cccc5c4OCCO5)CC3)n[nH]c2c1 [Compound 2b, 1-[1,4-Benzodioxan-5-yl]-4-[2-(6-chloroindazol-3-yl)ethyl]piperazine]",
550,34,18,,"Clc1ccc2occ(CCN3CCN(c4cccc5c4OCCO5)CC3)c2c1 [Compound 3d, 1-[1,4-Benzodioxan-5-yl]-4-[2-(5-chlorobenzofuran-3-yl)ethyl]piperazine]",
,,,154 to 157,"C(=CC1CCc2ccccc21)CCN1CCN(c2cccc3c2OCCO3)CC1 (stereo not drawn) (as salt: oxalate) [Compound 1b, 1-[1,4-Benzodioxan-5-yl]-4-[1-(indan-1-yl)-1-buten-4-yl]piperazine]",
,,,187 to 189,"Fc1ccc2c(CCCN3CCN(c4cccc5c4OCCO5)CC3)noc2c1 (as salt: fumarate) [Compound 3b, 1-[1,4-Benzodioxan-5-yl]-4-[3-(6-fluorobenzo[1,2]isoxazol-3-yl)-1-propyl]piperazine]",
,,,174 to 176,"Cc1ccc2c(CCN3CCN(c4cccc5c4OCCO5)CC3)coc2c1 (as salt: oxalate) [Compound 3e, 1-[1,4-Benzodioxan-5-yl]-4-[2-(6-methylbenzofuran-3-yl)ethyl]piperazine]",

# From patent US6596722B2, “Piperidine, tetrahydropyridine and piperazine derivatives, their preparation and use” (H. Lundbeck A/S, priority 1999, dated 2003)
